According to US10793567B2, “Bicyclic inhibitors of histone deacetylase” (Rodin Therapeutics, Inc., priority 2017, dated 2020):
pIC50: −log10 of the molar value.

Target: HDAC2 (Homo sapiens (Human), UniProt Q92769)
Experiment: HDAC2 enzymatic assay (Caliper LabChip, peptide deacetylation)
Type: biochemical
Settings: 17 hours, 25° C.
Experimental: The following describes an assay protocol for measuring the deacetylation of a peptide substrate by the enzymes HDAC2 or HDAC1. Enzyme, substrate, and cofactors are combined in a well of a microtiter plate and incubated for […] at 25° C. At the end of the incubation, the reaction is quenched by the addition of an SDS-containing buffer. Substrate and product are separated and quantified electrophoretically using the microfluidic-based LabChip 3000 Drug Discovery System from Caliper Life Sciences. The peptide substrate used in this assay is FAM-TSRHK(AC)KL-CONH2 (FAM is carboxyfluorescein). Peptide should be >98% purity by Capillary Electrophoresis. • 1. To a well of a 384-well plate, add 5 μL of 2× enzyme buffer. Using Labcyte Echo 550, add 100 nl compound. Enzyme and compound may be pre-incubated at this time if desired. • 2. Add 5 μL of 2× substrate buffer. • 3. Incubate plate at 25° C. for 17 hours. • 4. Terminate reaction by adding 40 μL of 1.55× stop buffer. • 5. Create job on a Caliper LabChip® 3000 Drug Discovery System. • 6. […]
Substrate and product peptides present in each sample are separated electrophoretically using the LabChip 3000 capillary electrophoresis instrument. As substrate and product peptides are separated, two peaks of fluorescence are observed. Change in the relative fluorescence intensity of the substrate and product peaks is the parameter measured, reflecting enzyme activity. Capillary electrophoregramms (RDA acquisition files) are analyzed using HTS Well Analyzer software (Caliper Life Sciences). The […] in each sample is determined as the product to sum ratio (PSR): P/(S+P), where P is the peak height of the product peptide and S is the peak height of the substrate peptide. For each compound, enzyme activity is measured at various concentrations (12 concentrations of compound spaced by 3× dilution intervals). […]
The IC50 values of inhibitors are determined by fitting the inhibition curves (Pinh versus inhibitor concentration) by 4 parameter sigmoidal dose-response model using XLfit 4 software (IBDS). […]

Sequence of HDAC2 (Q92769 whole entry): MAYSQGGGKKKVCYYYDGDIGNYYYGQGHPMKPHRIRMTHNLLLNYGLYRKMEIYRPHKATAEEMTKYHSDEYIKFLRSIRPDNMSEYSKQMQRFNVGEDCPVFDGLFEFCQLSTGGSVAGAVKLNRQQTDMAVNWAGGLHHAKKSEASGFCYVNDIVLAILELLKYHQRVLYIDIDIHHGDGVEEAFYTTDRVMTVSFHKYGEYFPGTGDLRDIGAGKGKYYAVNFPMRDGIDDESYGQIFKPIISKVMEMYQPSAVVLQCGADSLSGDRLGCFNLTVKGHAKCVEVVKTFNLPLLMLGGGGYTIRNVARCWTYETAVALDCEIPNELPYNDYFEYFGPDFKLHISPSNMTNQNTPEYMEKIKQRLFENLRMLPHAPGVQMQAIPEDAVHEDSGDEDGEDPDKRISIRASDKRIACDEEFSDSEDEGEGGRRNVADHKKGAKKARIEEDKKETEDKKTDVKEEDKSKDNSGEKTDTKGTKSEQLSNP

Row | SMILES | pIC50
1 | CCc1cc2c(cn1)CN(C(=O)Nc1nc(-c3cccnc3)ccc1N)C2 [Compound 8] | 5.30 to 6.30
2 | CCc1ncc2c(n1)CN(C(=O)Nc1nc(-c3ccc(F)cc3)ccc1N)C2 [Compound 17] | 5.30 to 6.30
